Measured values: patent US7094581B2, “Hyaluronan synthases and methods of making and using same” (The Board of Regents of the University of Oklahoma, priority 1998, dated 2006)
Where two headings read alike, the source gives them in different places.

Key:
[1] = system: seHAS; assay: Effect of sulfhydryl reagents on seHAS activity in E. coli membranes; assay type: biochemical, Streptococcus equisimilis; settings: E. coli membranes with seHAS-H6, 4° C. 1 h, 5 mM NEM, 5 mM IAA, 0.5 mM 5,5′-dithiobis-(2-nitrobenzoic acid), 0.05 mM methylmethanethiosulfonate, 10 mM sodium arsenite
Description: (§1) SeHAS is the smallest HAS protein (417 amino acids) and contains four Cys residues. […] To explore the possible role of cysteines in the function of HAS, the activities of seHAS and spHAS were assayed in the presence of different sulfhydryl reagents (Table II). […] The inhibition of each HAS by NEM was examined in more detail with respect to time of incubation and NEM concentration (FIG. 2).
(§2) E. coli SURE cells transformed with plasmids containing various seHAS mutants were grown in LB medium with vigorous shaking at 32° C. to A600 ˜0.8 and induced with 1 mM isopropyl-β-thiogalactoside for 3 h. Cells were harvested and membranes were prepared as described previously. The kinetic constants for HAS were determined at 37° C. in 100 μl of 50 mM sodium and potassium phosphate, pH 7.0, with 20 mM MgCl2, 1 mM DTE, 240 μM UDP-GIcUA, 0.7 μM UDP-[^14C]GIcUA and 0.6–1.0 mM UDP-GIcNAc. in 100 μl of 25 mM sodium and potassium phosphate, pH 7, containing 50 mM NaCl, 20 mM MgCl2, 1 mM dithiothreitol, 1 mM UDP-GIcUA, 0.68 μM UDP-GIcUA and 1 mM UDP-GIcNAc. Some assays also contained 0.1 mM EDTA and 20% glycerol (v/v). To initiate the enzyme reaction, ˜0.5–40 μg of membrane protein was added and the mixtures were gently shaken in a MicroMixer X-36 (Tiatec) at 30° C. for 1–2 h. Reactions were terminated by the addition of SDS to a final concentration of 2% (w/v). The incorporation of radioactive [^14C]GIcUA was determined by descending paper chromatography and the Km and Vmax values were determined as described by Tlapak-Simmons et al (1999b). Data were analyzed by the methods of Michaelis-Menton or Hill. Protein content was determined by the method of Bradford using bovine serum albumin as the standard. All Cys-mutant or sulfhydryl-treated seHAS samples were assayed in duplicate or triplicate using two or three independent membrane preparations. […] All enzyme assays were performed under conditions that were linear with respect to time and protein concentration.
(§3) Stock solutions (10–100 mM) of NEM, IAA or other sulfhydryl reagents were made in PBS, pH 7.0. Suspensions of membranes containing seHAS or spHAS were incubated with 0–5 mM of the sulfhydryl reagent at 4° C. and the reactions were stopped by adding DTE to a final concentration of 10 mM. The membranes were then assayed for HAS activity as described above.

[2] = target: T1, spHAS (Streptococcus pyogenes serotype M6, UniProt Q5X9A9); assay: Effect of sulfhydryl reagents on spHAS activity in E. coli membranes; assay type: biochemical; settings: for Inhibition of HAS Activity (% relative to control), spHAS: E. coli membranes with spHAS-H6, 4° C. 1 h, 5 mM NEM, 5 mM IAA, 0.5 mM 5,5′-dithiobis-(2-nitrobenzoic acid), 0.05 mM methylmethanethiosulfonate, 10 mM sodium arsenite
T1 construct: made in house; host or cells: E. coli SURE cells (isolated membranes)
T1 sequence (Q5X9A9 1-419): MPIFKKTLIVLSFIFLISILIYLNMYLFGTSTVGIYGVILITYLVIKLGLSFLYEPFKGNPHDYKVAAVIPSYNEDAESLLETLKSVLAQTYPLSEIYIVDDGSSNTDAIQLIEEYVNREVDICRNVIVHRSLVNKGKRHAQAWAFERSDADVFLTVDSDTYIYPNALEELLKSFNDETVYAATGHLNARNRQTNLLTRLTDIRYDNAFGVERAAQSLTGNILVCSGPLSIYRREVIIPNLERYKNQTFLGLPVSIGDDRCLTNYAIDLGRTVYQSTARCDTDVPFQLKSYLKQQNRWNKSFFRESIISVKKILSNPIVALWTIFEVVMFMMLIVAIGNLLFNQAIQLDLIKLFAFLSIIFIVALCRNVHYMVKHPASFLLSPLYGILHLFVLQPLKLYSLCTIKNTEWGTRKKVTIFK
Description: as §1, §2, §3

[3] = system: wild-type seHAS; assay: Utilization of UDP-GlcUA and UDP-GlcNAc by wild-type seHAS after NEM or sodium arsenite treatment; assay type: biochemical, Streptococcus equisimilis; settings: membranes 4° C. 1 h with 5 mM NEM or 10 mM sodium arsenite
Description: FIG. 3. Effect of NEM or sodium arsenite treatment on the utilization of UDP-GIcUA and UDP-GIcNAc by wild-type seHAS. E. coli membranes containing seHAS protein were incubated at 4° C. for 1 h in PBS containing 5 mM NEM or 10 mM Sodium Arsenite (SodArs), and the control membranes were incubated with PBS alone. Michaelis-Menten constants (Km) were calculated from the activities of seHAS at varying concentrations of UDP-GIcUA or UDP-GIcNAc.
Modification of the protein by NEM could affect any one or several of the six discrete functions that HAS must perform in order to synthesize HA. In order to determine if one of the nucleotide-sugar binding sites was affected by NEM, we examined the UDP-GIcUA and UDP-GIcNAc saturation profiles for treated and untreated seHAS (FIG. 3 and Table III).
E. coli SURE cells transformed with plasmids containing various seHAS mutants were grown in LB medium with vigorous shaking at 32° C. to A600 ˜0.8 and induced with 1 mM isopropyl-β-thiogalactoside for 3 h. Cells were harvested and membranes were prepared as described previously. The kinetic constants for HAS were determined at 37° C. in 100 μl of 50 mM sodium and potassium phosphate, pH 7.0, with 20 mM MgCl2, 1 mM DTE, 240 μM UDP-GIcUA, 0.7 μM UDP-[^14C]GIcUA and 0.6–1.0 mM UDP-GIcNAc. in 100 μl of 25 mM sodium and potassium phosphate, pH 7, containing 50 mM NaCl, 20 mM MgCl2, 1 mM dithiothreitol, 1 mM UDP-GIcUA, 0.68 μM UDP-GIcUA and 1 mM UDP-GIcNAc. Some assays also contained 0.1 mM EDTA and 20% glycerol (v/v). To initiate the enzyme reaction, ˜0.5–40 μg of membrane protein was added and the mixtures were gently shaken in a MicroMixer X-36 (Tiatec) at 30° C. for 1–2 h. Reactions were terminated by the addition of SDS to a final concentration of 2% (w/v). The incorporation of radioactive [^14C]GIcUA was determined by descending paper chromatography and the Km and Vmax values were determined as described by Tlapak-Simmons et al (1999b). Data were analyzed by the methods of Michaelis-Menton or Hill. Protein content was determined by the method of Bradford using bovine serum albumin as the standard. All Cys-mutant or sulfhydryl-treated seHAS samples were assayed in duplicate or triplicate using two or three independent membrane preparations. Results are presented as the mean±standard errors. All enzyme assays were performed under conditions that were linear with respect to time and protein concentration. None of the seHAS variant enzymes were unstable under the conditions employed.

[4] = system: seHAS; assay type: biochemical, Streptococcus equisimilis; settings: for Hill number: seHAS variants, UDP-GlcNAc utilization
Description: as §2

[5] = system: spHAS; assay: Kinetic analysis of Cys-mutants of spHAS, normalized to spHAS protein; assay type: biochemical, Streptococcus pyogenes; design: Vmax: unit not given here
Description: Kinetic analyses of the single and multiple spHAS Cys-mutants were performed to investigate the possibility that multiple Cys residues are critical in a coordinated way for enzyme activity. […] The spHAS(C225S) and spHAS(C280A) mutants had the most reduced activities with Vmax values at 30–50% of wildtype. The spHAS(C261,280A) and Cys-null mutant had 50–75% of the wildtype activity.
Membranes were isolated from E. coli SURE strains expressing mutant or wildtype spHAS, fractionated by SDS-PAGE according to the procedure of Laemmli (1970) and the proteins were electrotransferred to nitrocellulose as described by Towbin et al. (1979) with minor modifications (Tlapak-Simmons, et al., 1998). Western analysis was performed by incubating these blots for 1 h at room temperature with a biotinylated anti-His5 monoclonal antibody, as the primary antibody, then washing and incubating with 3 μg/ml ^125I-streptavidin, prepared as described hereinabove. After 1 h at room temperature, the blots were washed, dried and exposed to a Phosphoscreen for 1 to 72 h. The screens were analyzed using a Molecular Dynamics Phosphoimager and integrated density values were obtained for each spHAS band. Integrated density values were also obtained for increasing amounts of affinity-purified spHAS (Tlapak-Simmons et al., 1999a), which was used as an internal standard in the same blot to generate a standard curve. Dilutions of membrane samples were made as necessary to ensure that all estimates of HAS quantity were in the linear range of the assay. Those membrane samples giving a linear response with increasing protein were then compared to the standard curve to calculate the amount of spHAS present per μl membrane suspension. These values were then used to normalize the kinetic results obtained using membranes from the various spHAS mutants.
E. coli SURE cells, previously transformed with plasmids containing wildtype or mutant spHAS genes, were grown to an A600 of ˜1.2 and induced with 1 mM isopropyl thio-β-D-galactoside for three h. Cells were harvested and membranes were prepared as described previously (Tlapak-Simmons, et al., 1999a). The activities of mutant spHAS variants were assessed by measuring their Vmax and Km values in isolated membranes, normalized as described above for the amount of enzyme expressed. The Km values were determined using a descending paper chromatography assay (Tlapak-Simmons, et al., 1999b), holding one UDP-sugar substrate constant and varying the other from 0.01 to 4 mM. Data were analyzed by linear regression using Haynes-Wolf plots for UDP-GIcUA or Hill plots for UDP-GIcNAc.

## O=C(O)c1cc(SSc2ccc([N+](=O)[O-])c(C(=O)O)c2)ccc1[N+](=O)[O-] [5,5′-dithiobis-(2-nitrobenzoic acid)]
[1]
  Inhibition of HAS Activity (% relative to control), seHAS: 52 ± 6.5%
[2]
  Inhibition of HAS Activity (% relative to control), spHAS: 52 ± 4.9%

## O=C(O)CI [Iodacetic acid]
[1]
  Inhibition of HAS Activity (% relative to control), seHAS: 15%
[2]
  Inhibition of HAS Activity (% relative to control), spHAS: 13 ± 5.4%

## CSS(C)(=O)=O [Methylmethanethiosulfonate]
[1]
  Inhibition of HAS Activity (% relative to control), seHAS: 93 ± 5.4%
[1]; listed as methylmethanethiosulfonate
  Inhibition of HAS Activity (% relative to control), seHAS: > 93%
[2]
  Inhibition of HAS Activity (% relative to control), spHAS: 89 ± 5.5%

## O=[As]O [Sodium Arsenite]
[1]
  Inhibition of HAS Activity (% relative to control), seHAS: 40 ± 4.0%
[2]; read-out: Inhibition of HAS Activity (% relative to control), spHAS
  inhibition at 10000 µM: 46 ± 5.1%
[3]
  Vmax of treated wild-type seHAS, UDP-GlcNAc: 9.5 ± 1.1 nmol/µg/h
  Vmax of treated wild-type seHAS, UDP-GlcUA: 9.5 ± 1.1 nmol/µg/h
[3]; read-out: Km for UDP-GlcNAc of treated wild-type seHAS
  Km: 112 ± 38 µM
[3]; read-out: Km for UDP-GlcUA of treated wild-type seHAS
  Km: 67 ± 23 µM

B1: WT: wild-type Streptococcus equisimilis hyaluronan synthase (seHAS-His6), SEQ ID NO:2 (protein, listed as Streptococcus equisimilis)
chain: MRTLKNLITVVAFSIFWVLLIYVNVYLFGAKGSLSIYGFLLIAYLLVKMSLSFFYKPFKGRAGQYKVAAIIPSYNEDAESLLETLKSVQQQTYPLAEIYVVDDGSADETGIKRIEDYVRDTGDLSSNVIVHRSEKNQGKRHAQAWAFERSDADVFLTVDSDTYIYPDALEELLKTFNDPTVFAATGHLNVRNRQTNLLTRLTDIRYDNAFGVERAAQSVTGNILVCSGPLSVYRREVVVPNIDRYINQTFLGIPVSIGDDRCLTNYATDLGKTVYQSTAKCITDVPDKMSTYLKQQNRWNKSFFRESIISVKKIMNNPFVALWTILEVSMFMMLVYSVVDFFVGNVREFDWLRVLAFLVIIFIVALCRNIHYMLKHPLSFLLSPFYGVLHLFVLQPLKLYSLFTIRNADWGTRKKLL
modifications: His6 tag
[4]; seHAS variants in membranes from E. coli SURE cells
  Vmax: 5.60 ± 0.48 nmol/pmol/h
[4]; seHAS variants in membranes from E. coli SURE cells, read-out: Km for UDPGlcNAc
  Km: 74 ± 7 µM
[4]; seHAS variants in membranes from E. coli SURE cells, read-out: Km for UDPGlcUA
  Km: 77 ± 5 µM
[4]
  Hill number: 1.1 ± 0.1
[4]; listed as wild-type
  Hill number: 1.0

B2: Wildtype: wildtype Streptococcus pyogenes hyaluronan synthase (spHAS-His6), SEQ ID NO:4 (protein)
chain: T1 sequence (Q5X9A9 1-419)
modifications: His6 tag; Streptococcus pyogenes
[5]; UDP-GlcNAc utilization
  Hill number: 1.8 ± 0.1
[5]; at 0.5 mM UDP-GlcUA, read-out: Km UDP-GlcNAc
  Km: 398 ± 112 µM
[5]; at 1.5 mM UDP-GlcNAc, read-out: Km UDP-GlcUA
  Km: 50.4 ± 10.8 µM
[5]; both substrates incorporated per hour per pmol spHAS
  Vmax: 791 ± 215
